Patent publication US20250263440A1, “CD38-BINDING AGENTS AND USES THEREOF” (PeptiDream Inc., priority 2019, published 2025)
Starred links: 1 amine or outer side, 2 acyl side, 3 side chain; linkers in the order of their positions; H or OH if unused. Positions of bridges follow the written chain, without caps; N, C: chain ends. Non-standard residues stand in square brackets, D forms with d. Residues, ends and D or L forms follow the SMILES beside them. *: point of attachment. Ala(2-NH2-4-pyridyl) = Nc1cc(C[C@H](N)C(=O)O)ccn1; X2 = N=C(N)Nc1cccc(CC(N[*:1])C(=O)[*:2])c1; Bip = N[C@@H](Cc1ccc(-c2ccccc2)cc1)C(=O)O; Arg(Me2a) = CN(C)C(=N)NCCC[C@H](N)C(=O)O; Nle(6-Ph) = N[C@@H](CCCCc1ccccc1)C(=O)O; Met(O2) = CS(=O)(=O)CC[C@H](N)C(=O)O; hArg = N=C(N)NCCCC[C@H](N)C(=O)O; Ahp(2) = CCCCC[C@H](N)C(=O)O; hSer = N[C@@H](CCO)C(=O)O; X1 = COCCOCCOCCOCCC(=O)*

Biological target: His-tagged CD38 (Homo sapiens, UniProt P28907)
Test: SPR assay (Biacore S200, Sensor Chip NTA, single-cycle kinetics) of SEQ ID NO.1 variants against His-tagged CD38
Assay type: binding
Details: for Kd: SPR Biacore S200, His-tagged CD38, calculated from ka and kd; for kon / koff: SPR Biacore S200, NTA chip, His-tagged CD38; for kon: read-out: Ka (association rate constant); for koff: read-out: Kd (dissociation rate constant)
Method: SPR assay was performed using Biacore S200 (Cytiva: Former GE Healthcare).
After the equilibration of Series S Sensor Chip NTA (produced by Cytiva: Former GE Healthcare) with Running Buffer (10 mM HEPES pH7.4, 150 mM NaCl, 0.05% Tween 20), followed by injection of 350 mM EDTA at a flow rate of 10 L/min for 60 seconds and […] NiCl2 at a flow rate of 10 L/min for 60 seconds, then 3 mM EDTA at a flow rate of 10 L/min for 120 seconds, sequently, to wash the sensor chip.
EDC/NHS mixture was injected at a flow rate of […] for 7 minutes to thereby activate the functional groups on sensor chip. His-tagged CD38 in Running Buffer (10 mM HEPES pH7.4, 150 mM NaCl, 0.05% Tween 20) was injected immobilized to at a flow rate of […]. For 7 minutes to immobilize the CD38 on the substrate surfaces of the sensor chip. Then Ethanolamine was injected at a flow rate of […] for 7 minutes.
1.0 M Ethanolamine(aq.) was injected at a flow rate of 10 L/min for 420 seconds for capping. 10 mM peptides (which were synthesised described above) in DMSO were diluted to obtain 10 uM with Running Buffer, and prepared 100 nM, 50 nM, 25 nM, 10 nM, 5 nM of each peptide's solutions (Peptide Samples).
Using these Peptide Samples, kinetics of peptides against His-tagged CD38 was measured. The method adopted for sample measurement was a single-cycle kinetics method. The analysis was conducted using the evaluation software 1.1 provided with Biacore S200. A DMSO correction curve obtained by solvent correction measurements was applied for the analysis. Kinetics fitting was done on the difference data obtained by subtracting the baseline data from sample measurement data.
KD values were calculated based on the association rate constant (ka) and dissociation rate constant (kd).

Row | SMILES | Kd [nM] | kon [M⁻¹ s⁻¹] | koff [s⁻¹]
1 | CCCCC[C@@H]1NC(=O)[C@H](Cc2ccnc(N)c2)NC(=O)[C@H](C)NC(=O)CSC[C@@H](C(N)=O)NC(=O)[C@H](CC(=O)O)NC(=O)[C@H](CCCCc2ccccc2)NC(=O)[C@H](Cc2ccc(-c3ccccc3)cc2)NC(=O)[C@H](CC(C)C)NC(=O)[C@H](C(C)C)NC(=O)[C@H](CCC(=O)O)NC(=O)[C@H](CC(=O)O)NC(=O)[C@H](Cc2c[nH]cn2)NC(=O)[C@H](Cc2ccc(O)cc2)NC1=O [compound 34] ({CH2CO}-A[Ala(2-NH2-4-pyridyl)][Ahp(2)]YHDEVL[Bip][Nle(6-Ph)]DC-NH2; thioether N-13) | 10.4 | 120000 | 0.0012
2 | CCCCC[C@@H]1NC(=O)[C@H](CCCNC(=N)N)NC(=O)[C@H](C)NC(=O)CSC[C@@H](C(N)=O)NC(=O)[C@H](CC(=O)O)NC(=O)[C@H](CCCCC)NC(=O)[C@H](Cc2ccc(-c3ccccc3)cc2)NC(=O)[C@H](CCS(C)(=O)=O)NC(=O)[C@H](C(C)C)NC(=O)[C@H](CCCCNC(=N)N)NC(=O)[C@H](CC(=O)O)NC(=O)[C@H](Cc2c[nH]cn2)NC(=O)[C@H](Cc2ccc(O)cc2)NC1=O [compound 16] ({CH2CO}-AR[Ahp(2)]YHD[hArg]V[Met(O2)][Bip][Ahp(2)]DC-NH2; thioether N-13) | 17.3 | 870000 | 0.015
3 | CCCCC[C@@H]1NC(=O)[C@H](CCCNC(=N)N)NC(=O)[C@H](C)NC(=O)CSC[C@@H](C(N)=O)NC(=O)[C@H](CC(=O)O)NC(=O)[C@H](CCCCC)NC(=O)[C@H](Cc2ccc(-c3ccccc3)cc2)NC(=O)[C@H](CCS(C)(=O)=O)NC(=O)[C@H](C(C)C)NC(=O)[C@H](CCC(=O)O)NC(=O)[C@H](CC(=O)O)NC(=O)[C@H](Cc2c[nH]cn2)NC(=O)[C@H](Cc2ccc(O)cc2)NC1=O [compound 14] ({CH2CO}-AR[Ahp(2)]YHDEV[Met(O2)][Bip][Ahp(2)]DC-NH2; thioether N-13 (inferred); N-terminus and C-terminus assumed) | – | 570000 | 0.022
4 | CCCCC[C@@H]1NC(=O)[C@H](CCCNC(=N)N)NC(=O)[C@H](C)NC(=O)CSC[C@@H](C(N)=O)NC(=O)[C@H](CC(=O)O)NC(=O)[C@H](CCCCC)NC(=O)[C@H](Cc2ccc(-c3ccccc3)cc2)NC(=O)[C@H](CC(C)C)NC(=O)[C@H](C(C)C)NC(=O)[C@H](CCC(=O)O)NC(=O)[C@H](CC(=O)O)NC(=O)[C@H](Cc2c[nH]cn2)NC(=O)[C@H](Cc2ccc(O)cc2)NC1=O [compound 10] ({CH2CO}-AR[Ahp(2)]YHDEVL[Bip][Ahp(2)]DC-NH2; thioether N-13 (inferred); N-terminus and C-terminus assumed) | – | 471000 | 0.00223
5 | CCCCC[C@@H]1NC(=O)[C@H](CCCNC(=N)N)NC(=O)[C@H](C)NC(=O)CSC[C@@H](C(N)=O)NC(=O)[C@H](CC(=O)O)NC(=O)[C@H](CCCCC)NC(=O)[C@H](Cc2ccc(-c3ccccc3)cc2)NC(=O)[C@H](CC(C)C)NC(=O)[C@H](C(C)C)NC(=O)[C@H](CCC(=O)O)NC(=O)[C@H](CC(=O)O)NC(=O)[C@H](Cc2c[nH]cn2)NC(=O)[C@H](C)NC1=O [compound 21] ({CH2CO}-AR[Ahp(2)]AHDEVL[Bip][Ahp(2)]DC-NH2; thioether N-13 (inferred); N-terminus and C-terminus assumed) | – | 310000 | 0.016
6 | CCCCC[C@@H]1NC(=O)[C@H](CCCNC(=N)N)NC(=O)[C@H](C)NC(=O)CSC[C@@H](C(N)=O)NC(=O)[C@H](CC(=O)O)NC(=O)[C@H](CCCCC)NC(=O)[C@H](Cc2ccc(-c3ccccc3)cc2)NC(=O)[C@H](CCS(C)(=O)=O)NC(=O)[C@H](C(C)C)NC(=O)CNC(=O)[C@H](CC(=O)O)NC(=O)[C@H](Cc2c[nH]cn2)NC(=O)[C@H](Cc2ccc(O)cc2)NC1=O [compound 9] ({CH2CO}-AR[Ahp(2)]YHDGV[Met(O2)][Bip][Ahp(2)]DC-NH2; thioether N-13 (inferred); N-terminus and C-terminus assumed) | – | 664000 | 0.00627
7 | CCCCC[C@@H]1NC(=O)[C@H](CCCNC(=N)N)NC(=O)[C@H](C)NC(=O)CSC[C@@H](C(N)=O)NC(=O)[C@H](CC(=O)O)NC(=O)[C@H](CCCCC)NC(=O)[C@H](Cc2ccc(-c3ccccc3)cc2)NC(=O)[C@H](CC(C)C)NC(=O)[C@H](C(C)C)NC(=O)[C@H](CCC(N)=O)NC(=O)[C@H](CC(=O)O)NC(=O)[C@H](Cc2c[nH]cn2)NC(=O)[C@H](Cc2ccc(O)cc2)NC1=O [compound 4] ({CH2CO}-AR[Ahp(2)]YHDQVL[Bip][Ahp(2)]DC-NH2; thioether N-13 (inferred); N-terminus and C-terminus assumed) | – | 533000 | 0.0023
8 | CCCCC[C@@H]1NC(=O)[C@H](Cc2ccc(-c3ccccc3)cc2)NC(=O)[C@H](CC(C)C)NC(=O)[C@H](C(C)C)NC(=O)[C@H](CCC(=O)O)NC(=O)[C@H](CC(=O)O)NC(=O)[C@H](Cc2c[nH]cn2)NC(=O)[C@H](Cc2ccc(O)cc2)NC(=O)[C@H](CCCCNC(=O)CCOCCOCCOCCOC)NC(=O)[C@H](CCCNC(=N)N)NC(=O)[C@H](C)NC(=O)CSC[C@@H](C(N)=O)NC(=O)[C@H](CC(=O)O)NC1=O [compound 19] ({CH2CO}-ARK(X1)YHDEVL[Bip][Ahp(2)]DC-NH2; thioether N-13) | – | 160000 | 0.0012
9 | CCCCC[C@@H]1NC(=O)[C@H](CCCNC(=N)N(C)C)NC(=O)[C@H](C)NC(=O)CSC[C@@H](C(N)=O)NC(=O)[C@H](CC(=O)O)NC(=O)[C@H](CCCCc2ccccc2)NC(=O)[C@H](Cc2ccc(-c3ccccc3)cc2)NC(=O)[C@H](CC(C)C)NC(=O)[C@H](C(C)C)NC(=O)[C@H](CCC(=O)O)NC(=O)[C@H](CC(=O)O)NC(=O)[C@H](Cc2c[nH]cn2)NC(=O)[C@H](Cc2ccc(O)cc2)NC1=O [compound 32] ({CH2CO}-A[Arg(Me2a)][Ahp(2)]YHDEVL[Bip][Nle(6-Ph)]DC-NH2; thioether N-13) | 5.6 | 250000 | 0.0014
10 | CCCCC[C@@H]1NC(=O)[C@H](CCCNC(=N)N)NC(=O)[C@H](C)NC(=O)CSC[C@@H](C(N)=O)NC(=O)[C@H](CC(=O)O)NC(=O)[C@H](CCCCC)NC(=O)[C@H](Cc2ccc(-c3ccccc3)cc2)NC(=O)[C@H](CC(C)C)NC(=O)[C@H](C(C)C)NC(=O)[C@H](CCCCNC(=N)N)NC(=O)[C@H](CC(=O)O)NC(=O)[C@H](Cc2c[nH]cn2)NC(=O)[C@H](Cc2ccc(O)cc2)NC1=O [compound 12] ({CH2CO}-AR[Ahp(2)]YHD[hArg]VL[Bip][Ahp(2)]DC-NH2; thioether N-13 (inferred); N-terminus and C-terminus assumed) | – | 660000 | 0.0015
11 | CCCCC[C@@H]1NC(=O)[C@H](CCCNC(=N)N)NC(=O)[C@H](C)NC(=O)CSC[C@@H](C(N)=O)NC(=O)[C@H](CC(=O)O)NC(=O)[C@H](CCCCC)NC(=O)[C@H](Cc2ccc(-c3ccccc3)cc2)NC(=O)[C@H](CC(C)C)NC(=O)[C@H](C(C)C)NC(=O)[C@H](CCCNC(=N)N)NC(=O)[C@H](CC(=O)O)NC(=O)[C@H](Cc2c[nH]cn2)NC(=O)[C@H](Cc2ccc(O)cc2)NC1=O [compound 11] ({CH2CO}-AR[Ahp(2)]YHDRVL[Bip][Ahp(2)]DC-NH2; thioether N-13) | – | 1.6e+06 | 0.0019
12 | CCCCC[C@@H]1NC(=O)[C@H](CCCNC(=N)N)NC(=O)[C@H](C)NC(=O)CSC[C@@H](C(N)=O)NC(=O)[C@H](CC(=O)O)NC(=O)[C@H](CCCCC)NC(=O)[C@H](Cc2ccc(-c3ccccc3)cc2)NC(=O)[C@H](CCO)NC(=O)[C@H](C(C)C)NC(=O)CNC(=O)[C@H](CC(=O)O)NC(=O)[C@H](Cc2c[nH]cn2)NC(=O)[C@H](Cc2ccc(O)cc2)NC1=O [compound 8] ({CH2CO}-AR[Ahp(2)]YHDGV[hSer][Bip][Ahp(2)]DC-NH2; thioether N-13) | 38.8 | 790000 | 0.0306
13 | CCCCC[C@@H]1NC(=O)C(Cc2cccc(NC(=N)N)c2)NC(=O)[C@H](C)NC(=O)CSC[C@@H](C(N)=O)NC(=O)[C@H](CC(=O)O)NC(=O)[C@H](CCCCC)NC(=O)[C@H](Cc2ccc(-c3ccccc3)cc2)NC(=O)[C@H](CC(C)C)NC(=O)[C@H](C(C)C)NC(=O)[C@H](CCC(=O)O)NC(=O)[C@H](CC(=O)O)NC(=O)[C@H](Cc2c[nH]cn2)NC(=O)[C@H](Cc2ccc(O)cc2)NC1=O (stereo partly drawn) [compound 29] ({CH2CO}-A[X2][Ahp(2)]YHDEVL[Bip][Ahp(2)]DC-NH2; thioether N-13; C-terminus assumed) | – | 380000 | 0.00078
14 | CCCCC[C@@H]1NC(=O)[C@H](CCCCNC(=O)CCOCCOCCOCCOC)NC(=O)[C@H](C)NC(=O)CSC[C@@H](C(N)=O)NC(=O)[C@H](CC(=O)O)NC(=O)[C@H](CCCCC)NC(=O)[C@H](Cc2ccc(-c3ccccc3)cc2)NC(=O)[C@H](CC(C)C)NC(=O)[C@H](C(C)C)NC(=O)[C@H](CCC(=O)O)NC(=O)[C@H](CC(=O)O)NC(=O)[C@H](Cc2c[nH]cn2)NC(=O)[C@H](Cc2ccc(O)cc2)NC1=O [compound 18] ({CH2CO}-AK(X1)[Ahp(2)]YHDEVL[Bip][Ahp(2)]DC-NH2; thioether N-13) | 27.7 | 220000 | 0.006
